Square brackets hold non-standard residues; d marks the D form. Ends that are not written are not given here. Peptide text beside a SMILES is read from it.

This note sets out measurements from patent US6593299B1, “Compositions and methods for controlling pests” (priority 1999, dated 2003).

Assay [1] relates to Aedes aegypti larvae. The assay is described as follows: Feeding TMOF and analog peptides to mosquito larvae (LD50). It counts as in vivo. The following applies: newly hatched larvae on autoclaved yeast 1 mg/ml, peptide 0 to 5.0 mg/ml, microtiter plates, 7 days. An excerpt:
TMOF can traverse the gut epithelium, enter the hemolymph and bind a gut receptor (Borovsky, D. and F. Mahmood (1995) “Feeding the mosquito Aedes aegypti with TMOF and its analogs; effect on trypsin biosynthesis and egg development,” Regulatory Peptides 57:273-281.; Borovsky et al. (1994) “Characterization and localization of mosquito-gut receptors for trypsin modulating oostatic factor using complementary peptide immunochemistry”FASEB J. 8:350-355.). This characteristic permits the testing of TMOF and its analogues by feeding them to mosquito and other pest larvae. To find out if truncated TMOF peptides have an effect on larval growth and development, a series of peptides were synthesized and tested by feeding them to mosquito larvae at concentrations of 0 to 5.0 mg/ml (Table 2). Individual, newly hatched Aedes aegypti larvae were maintained in separate microtiter plate wells on a diet of autoclaved yeast (1 mg/ml). The diet was supplemented with TMOF peptides (Table 2). An identical number of larvae maintained on yeast served as a control. […] All control groups survived and larval growth and development was normal. Since larvae swallow only a small portion of the yeast particles adsorbed the peptides, it is assumed that approximately 1 to 20 ng are taken orally at the high concentrations.

In assay [2] the test system is fourth instar Heliothis virescens. Description: Feeding TMOF analogs to fourth instar H. virescens: larval weight. Format: in vivo. The settings on record: fourth instar larvae; for Weight Gain: 0.8 mg of analogue, 5 days; for Weight mg ± S.E.M. End: synthetic food and 0.8 mg of analogue, after 5 days; for Weight mg ± S.E.M. Start: weight before feeding (baseline). As to the method:
(§1) Several analogues were chosen and were fed to fourth instar Heliothis virescens for seven (7) days and to first instars for fourteen (14) days (Tables 3 and 4). In both cases a reduction in weight gain and trypsin inhibition was noted (Tables 3 and 4).
(§2) Individual first instar and fourth instar larvae of H. virescens were maintained in separate plastic cups and were fed on artificial diet blocks on which different concentrations of TMOF (0 to 1.6 mg) were adsorbed. Larvae were fed for 5 to 14 days and larval weight and trypsin activity were measured at the end of the experimental periods. […] When first instar larvae were fed for 14 days, an 18% and 26% reduction in weight was observed when analogues 15 and 16 were used (Table 4).
Fourth instar larvae were weighed and fed on synthetic food and 0.8 mg of TMOF analogues for 5 days. […]. Results are average of 3 to 10 experiments S.E.M.

Assay [3] concerns TTLE biosynthesis. Description: Feeding TMOF analogs to fourth instar H. virescens: gut trypsin (TTLE) biosynthesis by [3H]DFP. It counts as in vivo, Heliothis virescens. Details: Trypsin: unit not given here. The following applies: fourth instar larvae, 0.8 mg of analogue, 5 days; for Trypsin: guts incubated with [3H]DFP; for Inhibition (trypsin): versus control.
Assay [4] relates to first instar Heliothis virescens. The assay is described as follows: Feeding first instar H. virescens on TMOF analogs for 14 days. Format: in vivo. The following applies: first instar larvae fed 14 days; for Weight Reduction ± S.E.M.: versus control. Details: Weight Reduction ± S.E.M.: concentration or dose not given beside the values. How it is done: as §1, §2

`N[C@@H](Cc1ccc(O)cc1)C(=O)N[C@@H](CC(=O)O)C(=O)NCC(=O)O` [26. YDG, YDG] (H-Tyr-Asp-Gly-OH; N-terminus and C-terminus assumed): the “LD50 + S.E.M.” value in assay [1] is recorded as 0.95 ± 0.11 mM. On to MPDYPPPPP [2. MPDYP5, MPDYP5], for which the “LD50 + S.E.M.” value in assay [1] is given as above 3.0 mM. Take `N[C@@H](Cc1ccccc1)C(=O)N[C@@H](CO)C(=O)N1CCC[C@H]1C(=O)O` [35. FSP, FSP] (H-Phe-Ser-Pro-OH; N-terminus and C-terminus assumed): the “LD50 + S.E.M.” value in assay [1] came to 2.3 ± 0.13 mM.

`C[C@H](NC(=O)[C@@H]1CCCN1C(=O)[C@@H](CC(=O)O)NC(=O)[C@@H](N)Cc1ccc(O)cc1)C(=O)N1CCC[C@H]1C(=O)O` [17. Y(D)DPAP, Y(D)DPAP] (H-Y[dD]PAP-OH; N-terminus and C-terminus assumed): in assay [2], the “Weight Gain” value amounted to 153 mg, the “Weight mg ± S.E.M. End” value is recorded as 188 ± 12 mg and the “Weight mg ± S.E.M. Start” value is given as 34.6 ± 2 mg. Moreover, in assay [3], the Trypsin is recorded as 2.1 ± 0.2 and the “Inhibition (trypsin)” value was determined as 15 ± 1.3%. Further, in assay [4], the “Number of Dead Larvae” value is reported as 1, the “Weight ± S.E.M.” value came out at 152 ± 27 mg and the “Weight Reduction ± S.E.M.” value stood at 7 ± 1%. As for “YDPAP [12. YDPAP, YDPAP, reference compound]”, the “LD50 + S.E.M.” value in assay [1] was found to be 0.64 ± 0.03 mM. As to YDPAF [3. YDPAF, YDPAF], the “LD50 + S.E.M.” value in assay [1] was determined as 0.33 ± 0.2 mM.

On to YDPLP [6. YDPLP, YDPLP], for which the “LD50 + S.E.M.” value in assay [1] came out at 0.5 ± 0.04 mM. Take YDAAP [15. YDAAP, YDAAP]: the “LD50 + S.E.M.” value in assay [1] is on record as 1.0 ± 0.18 mM. Also, in assay [2], the “Weight Gain” value amounted to 179 mg, the “Weight mg ± S.E.M. End” value stood at 217 ± 9.5 mg and the “Weight mg ± S.E.M. Start” value turned out to be 38.2 ± 1.3 mg. For the same molecule, in assay [3], the Trypsin turned out to be 2.1 ± 0.2 and the “Inhibition (trypsin)” value was 17 ± 1.6%. Moreover, in assay [4], the “Number of Dead Larvae” value is 0, the “Weight ± S.E.M.” value was found to be 133 ± 7 mg and the “Weight Reduction ± S.E.M.” value is 18 ± 1%.

With `C[C@H](N)C(=O)N[C@@H](C)C(=O)N1CCC[C@H]1C(=O)O` [29. AAP, AAP] (H-Ala-Ala-Pro-OH; N-terminus and C-terminus assumed), the “LD50 + S.E.M.” value in assay [1] is listed as 1.08 ± 0.07 mM. With `N[C@@H](Cc1ccccc1)C(=O)N[C@@H](CC(=O)O)C(=O)N1CCC[C@H]1C(=O)O` [33. FDP, FDP] (H-Phe-Asp-Pro-OH; N-terminus and C-terminus assumed), the “LD50 + S.E.M.” value in assay [1] came out at 1.98 ± 0.6 mM.

On to FDPAP [5. FDPAP, FDPAP], for which the “LD50 + S.E.M.” value in assay [1] amounted to 0.37 ± 0.15 mM. The same measure, in the same setting: as for `C[C@H](NC(=O)[C@@H]1CCCN1)C(=O)N1CCC[C@H]1C(=O)O` [38. PAP, PAP] (H-Pro-Ala-Pro-OH; N-terminus and C-terminus assumed), the figure is 3.17 ± 0.14 mM. `N[C@@H](Cc1ccc(O)cc1)C(=O)N[C@@H](CC(=O)O)C(=O)O` [41. YD, YD] (H-Tyr-Asp-OH; N-terminus and C-terminus assumed): the “LD50 + S.E.M.” value in assay [1] was 1.24 ± 0.06 mM. YDLAP [13. YDLAP, YDLAP]: the “LD50 + S.E.M.” value in assay [1] worked out at 0.6 ± 0.05 mM. Turning to `C[C@H](NC(=O)[C@@H](N)Cc1ccccc1)C(=O)N1CCC[C@H]1C(=O)O` [39. FAP, FAP] (H-Phe-Ala-Pro-OH; N-terminus and C-terminus assumed), the “LD50 + S.E.M.” value in assay [1] is on record as 3.8 ± 0.23 mM. Same read-out and setting: then “YDPAPPPPPP [1. YDPAP6, YDPAP6, reference compound]”, with 0.2 ± 0.02 mM; and `C[C@H](NC(=O)[C@@H](N)Cc1ccc(O)cc1)C(=O)N1CCC[C@H]1C(=O)O` [36. YAP, YAP] (H-Tyr-Ala-Pro-OH; N-terminus and C-terminus assumed), with 2.3 ± 0.5 mM. Turning to `C[C@H](N)C(=O)N1CCC[C@H]1C(=O)N[C@@H](C)C(=O)O` [28. APA, APA] (H-Ala-Pro-Ala-OH; N-terminus and C-terminus assumed), the “LD50 + S.E.M.” value in assay [1] was determined as 1.0 ± 0.07 mM. Regarding YFPAP [11. YFPAP, YFPAP], the “LD50 + S.E.M.” value in assay [1] stood at 0.64 ± 0.03 mM. In the case of `N[C@@H](Cc1ccc(O)cc1)C(=O)N[C@@H](CC(=O)O)C(=O)N[C@@H](Cc1ccccc1)C(=O)O` [27. YDF, YDF] (H-Tyr-Asp-Phe-OH; N-terminus and C-terminus assumed), the “LD50 + S.E.M.” value in assay [1] turned out to be 0.97 ± 0.11 mM. For ADPAP [21. ADPAP, ADPAP], the “LD50 + S.E.M.” value in assay [1] is recorded as 2.0 ± 0.36 mM. For `C[C@H](N)C(=O)N[C@@H](CC(=O)O)C(=O)N1CCC[C@H]1C(=O)O` [40. ADP, ADP] (H-Ala-Asp-Pro-OH; N-terminus and C-terminus assumed), in assay [1], the “LD50 + S.E.M.” value was above 6.6 mM.

As to YNPAP [9. YNPAP, YNPAP], the “LD50 + S.E.M.” value in assay [1] was determined as 0.55 ± 0.03 mM. Turning to `C[C@H](NC(=O)[C@H](CC(=O)O)NC(=O)[C@@H](N)Cc1ccc(O)cc1)C(=O)O` [32. YDA, YDA] (H-Tyr-Asp-Ala-OH; N-terminus and C-terminus assumed), in assay [1], the “LD50 + S.E.M.” value is 1.6 ± 0.13 mM.

Consider YDPAL [7. YDPAL, YDPAL], for which the “LD50 + S.E.M.” value in assay [1] was 0.52 ± 0.03 mM. Regarding YDPFP [20. YDPFP, YDPFP], the “LD50 + S.E.M.” value in assay [1] was 1.7 ± 0.4 mM. On to `N[C@@H](CC(=O)O)C(=O)N[C@@H](Cc1ccc(O)cc1)C(=O)O` [42. DY, DY] (H-Asp-Tyr-OH; N-terminus and C-terminus assumed), for which, in assay [1], the “LD50 + S.E.M.” value came to 3.0 ± 0.8 mM. As for `N[C@@H](Cc1ccc(O)cc1)C(=O)N[C@H](CC(=O)O)C(=O)N1CCC[C@H]1C(=O)O` [22. Y(D)DP, Y(D)DP] (H-Tyr-[dD]-Pro-OH; N-terminus and C-terminus assumed), the “LD50 + S.E.M.” value in assay [1] is on record as 0.28 ± 0.01 mM. Consider `N[C@@H](Cc1ccc(O)cc1)C(=O)N[C@@H](CO)C(=O)N[C@@H](Cc1ccccc1)C(=O)O` [30. YSF, YSF] (H-Tyr-Ser-Phe-OH; N-terminus and C-terminus assumed), for which, in assay [1], the “LD50 + S.E.M.” value was found to be 1.08 ± 0.12 mM.

As to `N[C@H](Cc1ccc(O)cc1)C(=O)N[C@@H](CC(=O)O)C(=O)N1CCC[C@H]1C(=O)O` [24. (D)YDP, (D)YDP] (H-[dY]-Asp-Pro-OH; N-terminus and C-terminus assumed), the “LD50 + S.E.M.” value in assay [1] is 0.51 ± 0.05 mM.

As to YEPAP [4. YEPAP, YEPAP], the “LD50 + S.E.M.” value in assay [1] was 0.35 ± 0.02 mM. For the molecule `C[C@H](NC(=O)[C@H](C)NC(=O)[C@@H](N)CC(=O)O)C(=O)O` [25. DAA, DAA] (H-Asp-Ala-Ala-OH; N-terminus and C-terminus assumed), the “LD50 + S.E.M.” value in assay [1] came out at 0.91 ± 0.06 mM. Regarding `C[C@H](NC(=O)[C@H](C)NC(=O)[C@@H]1CCCN1)C(=O)O` [37. PAA, PAA] (H-Pro-Ala-Ala-OH; N-terminus and C-terminus assumed), in assay [1], the “LD50 + S.E.M.” value was found to be 2.4 ± 0.34 mM. In the case of ADAAP (()..() TMOF analog) [ADAAP(12)], in assay [2], the “Weight Gain” value stood at 174.1 mg, the “Weight mg ± S.E.M. End” value came out at 209.7 ± 12 mg and the “Weight mg ± S.E.M. Start” value was 35.7 ± 1.5 mg. In assay [3], the Trypsin is given as 2.4 ± 0.3 and the “Inhibition (trypsin)” value was 5 ± 0.6%. In assay [4], the “Number of Dead Larvae” value is listed as 0, the “Weight ± S.E.M.” value is given as 141 ± 9 mg and the “Weight Reduction ± S.E.M.” value was determined as 7 ± 0.4%. Turning to YAPAP [8. YAPAP, YAPAP], the “LD50 + S.E.M.” value in assay [1] is 0.54 ± 0.13 mM. YDPAA [19. YDPAA, YDPAA]: the “LD50 + S.E.M.” value in assay [1] is on record as 1.6 ± 0.13 mM.
